Laboratory results: patent publication US20200093786A1, “S[…] OF CANNABIS FOR TREATING MULTIPLE MYELOMA” (One World Cannabis LTD, priority 2014, published 2020)
Where two headings read alike, the source gives them in different places.

Key:
[1] = tested on: RPMI-MR20 (mitoxantrone-resistant cells); assay: XTT cell viability, mitoxantrone-resistant MM cells (Example 9); assay type: cell-based; settings: RPMI-MR20, 48 hours, concentration dependent manner, FIG. 5
Procedure: (§1) RPMI-MR20, RPMI-LR5 and RPMI-Dox40 were cultured during 48 hours with CBD (FIG. 5A), THC (FIG. 5B), CBD:THC 1:1 (FIG. 5C), CBD:THC 1:5 (FIG. 5D) and CBD:THC 5:1 (FIG. 5E). XTT assay was performed to assess cell viability.

[2] = tested on: CD138+ cells from myeloma patients; assay: XTT cell viability and combination index, CD138+ cells from bone marrow aspirate of MM patients (Example 8); assay type: cell-based, human; settings: for survival of MM cells (in words): CD138+ patient cells, each of the patients tested, concentration dependent manner, FIG. 4; for IC50: Homo sapiens, read-out: dose that caused 50% of MM cell death (IC50); for sensitivity of the patient's cells / more effective combination (in words): CD138+ cells, 48 hours
Procedure: This conversion only occurs in viable cells.
Peripheral blood samples from MM patients and healthy donors are processed by Ficoll density gradient centrifugation to isolate peripheral blood mononuclear cells (PBMCs). […] For co-culture assays MM cells are stained with CFSE, cultured in the presence of HS-5 human stroma cell line, treated with the drugs and their viability is evaluated by counterstained with PI and cell viability evaluation by flow cytometer analysis.
XTT assay was performed to assess cell viability. Each treatment was performed in triplicate and presented as mean±SE.
Combination Index (CI) value <1, =1, >1 indicates synergism, additive effect, and antagonism, respectively. Pat 1, 2, 3 indicate the patient number.

[3] = tested on: RPMI-LR5 (LEN-resistant cells); assay: XTT cell viability, LEN-resistant MM cells (Example 9); assay type: cell-based; settings: RPMI-LR5, 48 hours, concentration dependent manner, FIG. 5
Procedure: as §1

[4] = tested on: RPMI-Dox40 (DOXO-resistant cells); assay: XTT cell viability, DOXO-resistant MM cells (Example 9); assay type: cell-based; settings: RPMI-Dox40, 48 hours, concentration dependent manner, FIG. 5
Procedure: as §1

MM cells = settings: CBD by itself or in synergy with bortezomib; reference [8]; cited from earlier work

SMILES	survival of MM cells (in words) [1]	survival of MM cells (in words) [2]	IC50 ([2]; CD138+ cells of patients 1 to 3, 48 hours, FIG. 4D) [µM]	sensitivity of the patient's cells / more effective combination (in words) ([2]; Patient 1 (SM, no treatment))	sensitivity of the patient's cells / more effective combination (in words) ([2]; Patient 2 (VTD))	survival of MM cells (in words) [3]	survival of MM cells (in words) [4]	growth of MM cells (in words) (MM cells)	IC50 ([2]; 48 h) [µM]	sensitivity of the patient's cells / more effective combination (in words) ([2]; Patient 3 (VCD))
C=C(C)[C@@H]1CCC(C)=C[C@H]1c1c(O)cc(CCCCC)cc1O [CBD, Cannabidiol]	decreased survival	decreased survival	6.7 to 12.5	less sensitive to CBD than to THC	slightly more sensitive to CBD than to THC	decreased survival	decreased survival	strongly inhibited growth		
CCCCCc1cc(O)c2c(c1)OC(C)(C)[C@@H]1CCC(C)=C[C@@H]21 [THC, Tetrahydrocannabinol]	decreased survival	decreased survival				decreased survival	decreased survival		6 to 35	less sensitive to THC than to CBD
